Patent US20100240887A1, “New methods of producing HHT” (priority 2009, published 2010)
Where two headings read alike, the source gives them in different places.

Columns and labels:
HL-60 cells = experiment: Cellular diversion of human leukemic cells (NBT); format: cell-based; settings: human leukemic cells (HL-60); index of normal cells
gastric cancer cells = experiment: Cellular diversion of gastric cancer cells (NBT); format: cell-based
Normal cells = experiment: Apoptosis of normal cells; format: cell-based; settings: 50 ng/ml (Table 4)
Procedure: (§1) Cells ([…] were incubated in 10 ml IMDM plus […] heat-inactivated fetal calf serum. Samples were incubated for 24 hours with various concentrations of drugs. Control samples received the same amount of media, without drug addition. After 24 hours of incubation the samples were pelleted and fixed in ethanol […] for 15 minutes at 4° C.; after three washes in PBS, the cells were treated with RNase I 0.5 mg/ml for 15 minutes at 37° C. The cells were harvested by centrifugation and resuspended in 50 μg/ml propidium iodide in PBS. Analysis (upon acquisition of 10,000-20,000 events) was performed on a FACscan flow cytometer with the FL2 detector in logarithmic mode, using Lysis II software (Becton Dickinson). […]
(§2) For evaluation of apoptosis by flow cytometry, cells were fixed and permeabilized in 1% paraformaldehyde and ice-cold 70% ethanol. […] Green (apoptotic cells) and orange (total DNA) fluorescence were measured with a FACScan flow cytometer and analyzed with LYSIS II and CELLFIT programs. Data were analyzed by Student's t-test. […]
(§3) Untreated and treated HL-60 cells collected by centrifugation, washed in phosphate buffered saline and re-suspended at a concentration of 5×10^6 cells and 0.1% RNase A. The mixture was incubated at 37° C. for 30 min and then incubated for an additional 30 min at 37° C. […] DNA was precipitated with 0.5 N perchloric acid and quantitated using diphenylamine reagent. […]

Malignant melanoma cells = experiment: Apoptosis of malignant melanoma cells; format: cell-based; settings: 50 ng/ml
Procedure: as §1, §2, §3

Leukemic cells = experiment: Inhibition of tumor cell proliferation, leukemic cells; format: cell-based, human; settings: 1 μg/ml, 72 hours
Procedure: (§4) Human tumor cell lines: Hela leukemia HL-60, malignant melanocarcinoma B16, oral epidermoid carcinoma (KB), lung carcinoma (A549), breast carcinoma MCF-7, adenocarcinoma of stomach.
(§5) Animal tumor cell lines: Walker carcinoma, LLC-WRC-256, malignant melanoma (RMMI 1846), 3T3, and S-180 sarcoma (CCRF-180). All lines were routinely cultured in the RPMI1640 medium supplemented 20% fetal calf serum. The experiment was carried out in 96 microplate, each well had 5×10^5 cells and given desired concentration of 1 μg/ml (1×10^−6 g/ml) drug. Then the plate was incubated at […] in an atmosphere of humidified air enriched with 5 percent carbon dioxide for 72 hours.
(§6) Inhibition percent rate of tumor cell proliferation was obtained according to the bellow formula.

[1] = test system: Malignant melanoma of the pigmented layers of eyes; experiment: Inhibition of tumor cell proliferation, malignant melanoma of eyes; format: cell-based; settings: 1 μg/ml, 72 hours
Procedure: as §4, §5, §6

L615 transplanted tumor = experiment: Growth of transplanted tumor in mice; format: in vivo; settings: intraperitoneally, 20 mg/kg, sacrificed on the 12th day
Procedure: Male mice, weight 20-22 g, were used in the experiment. 1×10^7 tumor cells were injected to mouse and other drugs injected intraperitoneally began second day. All mice were sacrificed on the 12th day, isolated the tumor and weighed and calculated the inhibition rate of tumor weight.
The effect of HHT on the growth of animal transplanted tumor as illustrated by the Table 6.20 mg/kg of other drugs could inhibit the growth of L615 transplanted tumor.

tyrosine kinase (TK) = experiment: Tyrosine kinase (TK) assay in HL-60 leukemia cells; format: cell-based, human; settings: for % of control activity (TK): Table 8, concentration not given
Procedure: Tyrosine kinase (TK) Assay: TK was measured by a modification of the method of Braun et al. Briefly, H-60 leukemia cells were plated at a density of 5×10^5 cells in […], and divided control and treatments groups for incubation 24 hours at 37° C. with 5% CO2. The cells were collected by scraping, washed twice with phosphate-buffered saline, and resuspended at density of 10^6 cells/ml in 5 mM HEPEs buffer (pH 7.4). The cells were then resuspended in 1 ml of buffer containing 5 mM HEPES (pH 7.6), 1 mM MgCl2 and 1 mM EDTA, then placed on ice bath. The cell membrane was disrupted by ultra sound and centrifuged at 1,000×g for 10 minutes. The supernatant was ultra centrifuged at 30,000×g for 30 minutes at 4° C. The pellet was resuspended in 0.3 ml of buffer containing 25 mM HEOES, centrifuged at 12,000×g for 5 minutes. The resulting supernatant was used for TK assay. Content of protein was determined. 10 μg of protein placed in 20 mM HEPES (pH 7.6), 15 mM MgCl2, 10 mM ZnCl2 and 5% (v/v) nonidet P-40, with or without substrate [glutamic acid (GT), mg/ml]. After 5 minutes incubation at 25° C., the reaction was initiated by the addition of 25 μM [γ^32P] ATP (3 ci/mmol). After 10 minutes, the reaction was stopped by the addition of 20 mM cold ATP. 50 μl of the mixtures were spotted on glass microfiber filter discs and washed three times with cold trichloroacetic acid (TCA), contained 10 mM sodium pyrophosphate. Air dried. Radioactivity was determined by liquid scintillation spectrometry. The net TK activity was determined after correcting for endogenous TK activity.

[2] = test system: NNK-induced pulmonary adenomas; experiment: NNK-induced lung tumorigenesis; format: in vivo; settings: mice, 20 mg/kg daily by injection, NNK 10 μmol i.p., sixteen weeks
Procedure: Every group had 20 mice. […] For control group, each mouse was gave same volume of physiological saline. Three days later, mice were gave 10 μmol NNK (in 0.1 ml saline) by i.p. injection. Sixteen weeks after these treatments the mice were killed and pulmonary adenomas were counted. The statistical significance of bioassay data was determined by student's test.

mice = experiment: LD50 in mice; format: in vivo; settings: injection in abdominal cavity in mice
Excerpt: (§7) • 1. […] LD50 of HHT is much higher than majority anticancer drugs. The toxicology data of HHT mean that HHT is safe drug for treatment of cancer cells.

LD50 in mice = format: in vivo; settings: mouse, in vivo, intraperitoneal; injection in abdominal cavity in mice
Excerpt: as §7

dogs [3] = settings: dog, in vivo
Procedure: (§8) Forty dogs were used. Body weight, food consumption, general observations, laboratory tests, and postmortem examinations were determined.
(§9) Twenty normal adult dogs had weight approximately 10 kg±1 kg used in experiments. Toxic doses for dogs: 0.15 mg/kg/days×7 and 0.30 mg/kg/days×7 of HHT was injected as the toxic doses.
(§10) For HHT treatment group, at least eight dogs that died early in the observation period and eight dogs that died late were examined.

dogs [4] = experiment: Short-term toxicity in dogs
Procedure: as §8, §9, §10

| Compound | NBT (%) (HL-60 cells) | Apoptosis (%) (Normal cells) | Apoptosis (%) (Malignant melanoma cells) | Inhibition (%) (Leukemic cells) | Inhibition (%) [1] | Inhibition (%) of transplanted tumor (tumor weight) (L615 transplanted tumor) | % of control activity (TK) (tyrosine kinase (TK)) | Tumor incidence (%) [2] | LD50 (mice) | also measured |
| --- | --- | --- | --- | --- | --- | --- | --- | --- | --- | --- |
| COC(=O)C[C@](O)(CCCC(C)(C)O)C(=O)O[C@@H]1C(OC)=C[C@]23CCCN2CCc2cc4c(cc2[C@H]13)OCO4 [C-HHT] | 64 ± 8.0 % | 19.2 ± 2.5 % | 43.8 ± 4.2 % | 74.1 ± 10.8% | 83.1 ± 9.8% | 67.8 ± 6.0% | 20.0 ± 5.0% | 21.7 ± 4.8 % | 4.0 mg/kg | NBT (%) (gastric cancer cells): 57 ± 8.9 % |
| COC(=O)C[C@](O)(CCCC(C)(C)O)C(=O)O[C@@H]1C(OC)=C[C@]23CCCN2CCc2cc4c(cc2[C@H]13)OCO4 [HHT, Homoharringtonine] |  |  |  |  |  |  |  |  |  | inhibition at 1 µg/mL [1]: 80 ± 9.2%; inhibition of TK activity (tyrosine kinase (TK); 10^−6 M): 99.9%; LD50 (LD50 in mice): 4.07 mg/kg; delayed toxicity (dogs [3]): No significant delayed toxicity; major target organs involved in toxicity (dogs [3]): G.I. tract, heart and hematopoietic organs; Heart rate (dogs [3]; 0.1 mg/kg/day): 205 beat/min; Leukocyte count (dogs [3]; 0.1 mg/kg/day): 3.90 ×10^3/mm^3; Heart rate (dogs [3]; 0.2 mg/kg/day): 230 beat/min; Leukocyte count (dogs [3]; 0.2 mg/kg/day): 3.58 ×10^3/mm^3; Heart rate (dogs [3]; 0.3 mg/kg/day): 259 beat/min; Leukocyte count (dogs [3]; 0.3 mg/kg/day): 3.20 ×10^3/mm^3; Heart rate (dogs [4]; 0.1 mg/kg/d × 7, ♀): 208 beat/min; Leukocyte count (dogs [4]; 0.1 mg/kg/d × 7, ♀): 3.91 ×10^3/mm^3; Heart rate (dogs [4]; 0.2 mg/kg/d × 7, ♀): 232 beat/min; Leukocyte count (dogs [4]; 0.2 mg/kg/d × 7, ♀): 3.65 ×10^3/mm^3; Heart rate (dogs [4]; 0.3 mg/kg/d × 7, ♀): 260 beat/min; Leukocyte count (dogs [4]; 0.3 mg/kg/d × 7, ♀): 3.25 ×10^3/mm^3 |
| COC(=O)C[C@](O)(CCCC(C)(C)O)C(=O)O[C@@H]1C(OC)=C[C@]23CCCN2CCc2cc4c(cc2[C@H]13)OCO4 [S-HHT] | 63 ± 7.8 % | 18.0 ± 2.0 % | 43.0 ± 6.0 % | 72.5 ± 11.6% | 82.5 ± 10.2% | 69.2 ± 7.0 % | 20.8 ± 4.8 % | 26.5 ± 4.9 % | 4.20 mg/kg |  |
